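Following 48 hours of exposure in 96-well plates, responses at five concentrations were used to interpolate endpoints linearly. At the TGI there is no net growth.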
Legend:
Test in all cases: inhibition of tumour cell growth, NCI panel, 48 h
HOP-62 NSCLC = test system: HOP-62 NSCLC
MDA-MB-435 = test system: MDA-MB-435
LOX IMVI melanoma = test system: LOX IMVI melanoma
SNB-19 CNS = test system: SNB-19 CNS
K-562 leukemia = test system: K-562 leukemia
NCI-H460 lung = test system: NCI-H460 lung
RPMI-8226 leukemia = test system: RPMI-8226 leukemia
SK-MEL-5 melanoma = test system: SK-MEL-5 melanoma
DU-145 prostate = test system: DU-145 prostate
CAKI-1 renal = test system: CAKI-1 renal
SF-539 CNS = test system: SF-539 CNS
U251 CNS = test system: U251 CNS
786-0 renal = test system: 786-0 renal
SF-268 CNS = test system: SF-268 CNS
IGROV1 ovarian = test system: IGROV1 ovarian
OVCAR-3 ovarian = test system: OVCAR-3 ovarian
HS 578T breast = test system: HS 578T breast
SW-620 colon = test system: SW-620 colon
HCT-116 colon = test system: HCT-116 colon
HL-60(TB) leukemia = test system: HL-60(TB) leukemia
CCRF-CEM leukemia = test system: CCRF-CEM leukemia
ACHN renal = test system: ACHN renal
SK-MEL-2 melanoma = test system: SK-MEL-2 melanoma
HT29 colon = test system: HT29 colon
SR leukemia = test system: SR leukemia
HCC-2998 colon = test system: HCC-2998 colon
SF-295 CNS = test system: SF-295 CNS
A549 NSCLC = test system: A549 NSCLC
COLO 205 colon = test system: COLO 205 colon
SNB-75 CNS = test system: SNB-75 CNS
A498 renal = test system: A498 renal
UACC-257 melanoma = test system: UACC-257 melanoma
OVCAR-4 ovarian = test system: OVCAR-4 ovarian
UO-31 renal = test system: UO-31 renal
HCT-15 colon = test system: HCT-15 colon
KM12 colon = test system: KM12 colon
HOP-92 NSCLC = test system: HOP-92 NSCLC
PC-3 prostate = test system: PC-3 prostate
EKVX NSCLC = test system: EKVX NSCLC
NCI-H23 lung = test system: NCI-H23 lung
MDA-N = test system: MDA-N
MOLT-4 leukemia = test system: MOLT-4 leukemia
OVCAR-5 ovarian = test system: OVCAR-5 ovarian
OVCAR-8 ovarian = test system: OVCAR-8 ovarian
T-47D breast = test system: T-47D breast
TK-10 renal = test system: TK-10 renal
SN12C renal = test system: SN12C renal
BT-549 breast = test system: BT-549 breast
NCI/ADR-RES ovarian = test system: NCI/ADR-RES ovarian
SK-MEL-28 melanoma = test system: SK-MEL-28 melanoma
UACC-62 melanoma = test system: UACC-62 melanoma
MCF7 breast = test system: MCF7 breast
MDA-MB-231 breast = test system: MDA-MB-231 breast
NCI-H226 lung = test system: NCI-H226 lung
M14 melanoma = test system: M14 melanoma
MALME-3M melanoma = test system: MALME-3M melanoma
NCI-H522 lung = test system: NCI-H522 lung
SK-OV-3 ovarian = test system: SK-OV-3 ovarian

O=c1c(-c2ccccc2)c2n(c3ccccc13)CCN2
TGI (HOP-62 NSCLC): > 100 µM | TGI (MDA-MB-435): > 100 µM | TGI (LOX IMVI melanoma): > 100 µM | TGI (SNB-19 CNS): 86.9 µM | TGI (K-562 leukemia): > 100 µM | TGI (NCI-H460 lung): > 100 µM | TGI (RPMI-8226 leukemia): > 100 µM | TGI (SK-MEL-5 melanoma): > 100 µM | TGI (DU-145 prostate): > 100 µM | TGI (CAKI-1 renal): > 100 µM | TGI (SF-539 CNS): > 100 µM | TGI (U251 CNS): > 100 µM | TGI (786-0 renal): > 100 µM | TGI (SF-268 CNS): > 100 µM | TGI (IGROV1 ovarian): > 100 µM | TGI (OVCAR-3 ovarian): 66.6 µM | TGI (HS 578T breast): > 100 µM | TGI (SW-620 colon): > 100 µM | TGI (HCT-116 colon): > 100 µM | TGI (HL-60(TB) leukemia): > 100 µM | TGI (CCRF-CEM leukemia): > 100 µM | TGI (ACHN renal): > 100 µM | TGI (SK-MEL-2 melanoma): 61.1 µM | TGI (HT29 colon): > 100 µM | TGI (SR leukemia): > 100 µM | TGI (HCC-2998 colon): > 100 µM | TGI (SF-295 CNS): > 100 µM | TGI (A549 NSCLC): > 100 µM | TGI (COLO 205 colon): > 100 µM | TGI (SNB-75 CNS): > 100 µM | TGI (A498 renal): > 100 µM | TGI (UACC-257 melanoma): > 100 µM | TGI (OVCAR-4 ovarian): > 100 µM | TGI (UO-31 renal): > 100 µM | TGI (HCT-15 colon): > 100 µM | TGI (KM12 colon): > 100 µM | TGI (HOP-92 NSCLC): > 100 µM | TGI (PC-3 prostate): > 100 µM | TGI (EKVX NSCLC): > 100 µM | TGI (NCI-H23 lung): > 100 µM | TGI (MDA-N): > 100 µM | TGI (MOLT-4 leukemia): > 100 µM | TGI (OVCAR-5 ovarian): > 100 µM | TGI (OVCAR-8 ovarian): > 100 µM | TGI (T-47D breast): > 100 µM | TGI (TK-10 renal): > 100 µM | TGI (SN12C renal): > 100 µM | TGI (BT-549 breast): > 100 µM | TGI (NCI/ADR-RES ovarian): > 100 µM | TGI (SK-MEL-28 melanoma): > 100 µM | TGI (UACC-62 melanoma): > 100 µM | TGI (MCF7 breast): > 100 µM | TGI (MDA-MB-231 breast): > 100 µM | TGI (NCI-H226 lung): > 100 µM | TGI (M14 melanoma): > 100 µM

C=CCN1CCN([C@H](c2ccc(C(=O)N(CC)CC)cc2)c2cccc(OC)c2)CC1
TGI (HOP-62 NSCLC): > 25 µM | TGI (MDA-MB-435): > 25 µM | TGI (SNB-19 CNS): > 25 µM | TGI (RPMI-8226 leukemia): > 25 µM | TGI (MALME-3M melanoma): > 25 µM | TGI (SK-MEL-5 melanoma): > 25 µM | TGI (DU-145 prostate): > 25 µM | TGI (CAKI-1 renal): > 25 µM | TGI (SF-539 CNS): > 25 µM | TGI (U251 CNS): > 25 µM | TGI (786-0 renal): > 25 µM | TGI (SF-268 CNS): > 25 µM | TGI (IGROV1 ovarian): > 25 µM | TGI (OVCAR-3 ovarian): > 25 µM | TGI (HS 578T breast): > 25 µM | TGI (SW-620 colon): > 25 µM | TGI (HCT-116 colon): > 25 µM | TGI (HL-60(TB) leukemia): > 25 µM | TGI (ACHN renal): > 25 µM | TGI (SK-MEL-2 melanoma): > 25 µM | TGI (HT29 colon): > 25 µM | TGI (SR leukemia): > 25 µM | TGI (SF-295 CNS): > 25 µM | TGI (A549 NSCLC): > 25 µM | TGI (COLO 205 colon): > 25 µM | TGI (NCI-H522 lung): > 25 µM | TGI (A498 renal): > 25 µM | TGI (OVCAR-4 ovarian): > 25 µM | TGI (UO-31 renal): > 25 µM | TGI (HCT-15 colon): > 25 µM | TGI (KM12 colon): > 25 µM | TGI (HOP-92 NSCLC): > 25 µM | TGI (PC-3 prostate): > 25 µM | TGI (EKVX NSCLC): > 25 µM | TGI (NCI-H23 lung): > 25 µM | TGI (MDA-N): > 25 µM | TGI (MOLT-4 leukemia): > 25 µM | TGI (OVCAR-5 ovarian): > 25 µM | TGI (OVCAR-8 ovarian): > 25 µM | TGI (T-47D breast): > 25 µM | TGI (SN12C renal): > 25 µM | TGI (BT-549 breast): > 25 µM | TGI (NCI/ADR-RES ovarian): > 25 µM | TGI (SK-MEL-28 melanoma): > 25 µM | TGI (UACC-62 melanoma): > 25 µM | TGI (MCF7 breast): > 25 µM | TGI (MDA-MB-231 breast): > 25 µM | TGI (NCI-H226 lung): > 25 µM | TGI (M14 melanoma): > 25 µM | TGI (SK-OV-3 ovarian): > 25 µM

Cc1cc(Nc2ccc(S(=O)(=O)O)cc2)c2ccccc2n1
TGI (HOP-62 NSCLC): > 100 µM | TGI (MDA-MB-435): > 100 µM | TGI (LOX IMVI melanoma): > 100 µM | TGI (SNB-19 CNS): > 100 µM | TGI (K-562 leukemia): > 100 µM | TGI (RPMI-8226 leukemia): > 100 µM | TGI (MALME-3M melanoma): > 100 µM | TGI (SK-MEL-5 melanoma): > 100 µM | TGI (DU-145 prostate): > 100 µM | TGI (CAKI-1 renal): > 100 µM | TGI (SF-539 CNS): > 100 µM | TGI (U251 CNS): > 100 µM | TGI (786-0 renal): > 100 µM | TGI (SF-268 CNS): > 100 µM | TGI (IGROV1 ovarian): > 100 µM | TGI (OVCAR-3 ovarian): > 100 µM | TGI (HS 578T breast): > 100 µM | TGI (SW-620 colon): > 100 µM | TGI (HCT-116 colon): > 100 µM | TGI (HL-60(TB) leukemia): > 100 µM | TGI (CCRF-CEM leukemia): > 100 µM | TGI (ACHN renal): > 100 µM | TGI (SK-MEL-2 melanoma): > 100 µM | TGI (HT29 colon): > 100 µM | TGI (SR leukemia): > 100 µM | TGI (HCC-2998 colon): > 100 µM | TGI (SF-295 CNS): > 100 µM | TGI (A549 NSCLC): > 100 µM | TGI (COLO 205 colon): > 100 µM | TGI (NCI-H522 lung): > 100 µM | TGI (SNB-75 CNS): > 100 µM | TGI (A498 renal): > 100 µM | TGI (UACC-257 melanoma): > 100 µM | TGI (OVCAR-4 ovarian): > 100 µM | TGI (UO-31 renal): > 100 µM | TGI (HCT-15 colon): > 100 µM | TGI (KM12 colon): > 100 µM | TGI (HOP-92 NSCLC): > 100 µM | TGI (PC-3 prostate): > 100 µM | TGI (EKVX NSCLC): > 100 µM | TGI (NCI-H23 lung): > 100 µM | TGI (MDA-N): > 100 µM | TGI (MOLT-4 leukemia): > 100 µM | TGI (OVCAR-5 ovarian): > 100 µM | TGI (OVCAR-8 ovarian): > 100 µM | TGI (T-47D breast): > 100 µM | TGI (TK-10 renal): > 100 µM | TGI (SN12C renal): > 100 µM | TGI (BT-549 breast): > 100 µM | TGI (NCI/ADR-RES ovarian): > 100 µM | TGI (SK-MEL-28 melanoma): > 100 µM | TGI (UACC-62 melanoma): > 100 µM | TGI (MCF7 breast): > 100 µM | TGI (MDA-MB-231 breast): > 100 µM | TGI (NCI-H226 lung): > 100 µM | TGI (M14 melanoma): > 100 µM | TGI (SK-OV-3 ovarian): > 100 µM
